Results taken from the kinase profiling compilation of Christmann-Franck et al. (2016).

Tests used:
Test in all cases: KINOMEscan competition binding
Details in all cases: compound 10.0 µM
[1] = molecular target: SIK2 (human) (UniProt Q9H0K1)
[2] = molecular target: CLK1 (human) (UniProt P49759)
[3] = molecular target: RIPK1 (human) (UniProt Q13546)
[4] = molecular target: MYLK (human) (UniProt Q15746)
[5] = molecular target: MAPK6 (human) (UniProt Q16659)
[6] = molecular target: AKT2 (human) (UniProt P31751)
[7] = molecular target: FGR (human) (UniProt P09769)
[8] = molecular target: MAP4K4 (human) (UniProt O95819)
[9] = molecular target: MKNK1 (human) (UniProt Q9BUB5)
[10] = molecular target: NLK (human) (UniProt Q9UBE8)
[11] = molecular target: RPS6KA4 KD2 (human) (UniProt O75676)
[12] = molecular target: PRKCH (human) (UniProt P24723)
[13] = molecular target: BRSK1 (human) (UniProt Q8TDC3)
Sequence of BRSK1 (human) (Q8TDC3 whole entry, looked up): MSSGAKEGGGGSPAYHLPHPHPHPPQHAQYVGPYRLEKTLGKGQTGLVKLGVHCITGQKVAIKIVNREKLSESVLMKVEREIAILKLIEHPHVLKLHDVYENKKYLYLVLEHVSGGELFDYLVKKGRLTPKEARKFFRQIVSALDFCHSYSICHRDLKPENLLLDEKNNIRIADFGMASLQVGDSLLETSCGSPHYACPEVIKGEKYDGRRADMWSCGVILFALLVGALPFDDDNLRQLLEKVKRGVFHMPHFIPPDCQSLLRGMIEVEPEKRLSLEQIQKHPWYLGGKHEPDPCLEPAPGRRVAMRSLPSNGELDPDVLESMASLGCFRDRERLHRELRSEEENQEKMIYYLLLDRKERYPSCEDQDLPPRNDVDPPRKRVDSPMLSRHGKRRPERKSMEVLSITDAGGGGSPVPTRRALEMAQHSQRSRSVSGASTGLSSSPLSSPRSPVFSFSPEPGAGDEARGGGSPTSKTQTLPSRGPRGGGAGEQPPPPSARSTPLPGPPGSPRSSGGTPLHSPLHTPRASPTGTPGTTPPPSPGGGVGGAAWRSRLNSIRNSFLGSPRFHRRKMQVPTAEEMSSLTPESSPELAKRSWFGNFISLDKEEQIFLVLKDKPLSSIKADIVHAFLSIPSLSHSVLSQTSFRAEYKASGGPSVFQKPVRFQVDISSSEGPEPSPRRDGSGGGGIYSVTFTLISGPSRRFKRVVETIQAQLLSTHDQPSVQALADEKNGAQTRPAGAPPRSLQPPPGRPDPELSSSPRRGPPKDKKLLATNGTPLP

[14] = molecular target: CDK9 (human) (UniProt P50750)
[15] = molecular target: NUAK2 (human) (UniProt Q9H093)
Sequence of NUAK2 (human) (Q9H093 whole entry, looked up): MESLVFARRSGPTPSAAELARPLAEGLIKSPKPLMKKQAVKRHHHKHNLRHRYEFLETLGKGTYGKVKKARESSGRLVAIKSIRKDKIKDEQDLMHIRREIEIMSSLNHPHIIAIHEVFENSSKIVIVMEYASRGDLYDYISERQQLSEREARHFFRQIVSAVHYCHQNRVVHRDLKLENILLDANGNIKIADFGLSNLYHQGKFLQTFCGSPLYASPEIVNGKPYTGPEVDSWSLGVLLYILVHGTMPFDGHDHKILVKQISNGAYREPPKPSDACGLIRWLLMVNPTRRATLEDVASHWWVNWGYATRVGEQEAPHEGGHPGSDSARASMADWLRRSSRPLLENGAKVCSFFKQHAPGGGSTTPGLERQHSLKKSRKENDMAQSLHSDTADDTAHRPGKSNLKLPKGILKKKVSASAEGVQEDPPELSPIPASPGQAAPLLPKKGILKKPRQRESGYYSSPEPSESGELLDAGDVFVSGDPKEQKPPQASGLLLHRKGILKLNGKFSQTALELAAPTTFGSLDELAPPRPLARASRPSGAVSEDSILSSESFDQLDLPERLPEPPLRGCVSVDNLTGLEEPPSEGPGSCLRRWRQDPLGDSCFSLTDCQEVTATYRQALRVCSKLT

[16] = molecular target: CDC2L2 (human) (UniProt Q9UQ88)
[17] = molecular target: PRKAA1 (human) (UniProt Q13131)
[18] = molecular target: AKT3 (human) (UniProt Q9Y243)
[19] = molecular target: SRPK1 (human) (UniProt Q96SB4)
[20] = molecular target: PAK1 (human) (UniProt Q13153)
[21] = molecular target: PRKCQ (human) (UniProt Q04759)
[22] = molecular target: CSNK1G3 (human) (UniProt Q9Y6M4)
[23] = molecular target: MST4 (human) (UniProt Q9P289)
[24] = molecular target: LATS1 (human) (UniProt O95835)
[25] = molecular target: CSNK2A2 (human) (UniProt P19784)
Sequence of CSNK2A2 (human) (P19784 whole entry, looked up): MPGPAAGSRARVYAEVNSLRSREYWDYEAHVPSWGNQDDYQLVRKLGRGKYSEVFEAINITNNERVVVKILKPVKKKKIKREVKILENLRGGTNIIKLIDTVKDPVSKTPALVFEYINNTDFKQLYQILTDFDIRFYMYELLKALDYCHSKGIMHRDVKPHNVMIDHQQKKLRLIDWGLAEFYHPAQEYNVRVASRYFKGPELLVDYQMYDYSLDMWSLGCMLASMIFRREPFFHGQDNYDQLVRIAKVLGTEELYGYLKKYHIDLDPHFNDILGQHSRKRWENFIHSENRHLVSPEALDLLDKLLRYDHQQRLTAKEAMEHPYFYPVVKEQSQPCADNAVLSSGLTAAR

[26] = molecular target: MELK (human) (UniProt Q14680)
[27] = molecular target: CAMK2D (human) (UniProt Q13557)
Sequence of CAMK2D (human) (Q13557 whole entry, looked up): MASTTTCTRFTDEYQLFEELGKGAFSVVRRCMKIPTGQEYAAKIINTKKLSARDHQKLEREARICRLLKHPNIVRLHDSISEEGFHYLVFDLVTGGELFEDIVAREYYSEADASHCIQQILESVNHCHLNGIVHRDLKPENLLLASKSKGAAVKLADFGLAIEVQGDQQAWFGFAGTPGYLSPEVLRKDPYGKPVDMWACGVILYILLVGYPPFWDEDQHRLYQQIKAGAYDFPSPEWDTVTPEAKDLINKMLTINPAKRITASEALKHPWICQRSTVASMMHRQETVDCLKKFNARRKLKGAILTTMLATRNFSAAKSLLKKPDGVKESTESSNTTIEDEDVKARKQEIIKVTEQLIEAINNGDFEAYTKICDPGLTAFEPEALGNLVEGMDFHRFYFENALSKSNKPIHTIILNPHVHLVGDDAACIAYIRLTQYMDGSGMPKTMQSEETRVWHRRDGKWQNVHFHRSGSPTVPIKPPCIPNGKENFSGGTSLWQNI

[28] = molecular target: CSNK2A1 (human) (UniProt P68400)
[29] = molecular target: CAMK2B (human) (UniProt Q13554)
[30] = molecular target: CDK8 (human) (UniProt P49336)
[31] = molecular target: PRKD1 (human) (UniProt Q15139)
[32] = molecular target: CAMK2A (human) (UniProt Q9UQM7)
[33] = molecular target: AURKC (human) (UniProt Q9UQB9)
Sequence of AURKC (human) (Q9UQB9 whole entry, looked up): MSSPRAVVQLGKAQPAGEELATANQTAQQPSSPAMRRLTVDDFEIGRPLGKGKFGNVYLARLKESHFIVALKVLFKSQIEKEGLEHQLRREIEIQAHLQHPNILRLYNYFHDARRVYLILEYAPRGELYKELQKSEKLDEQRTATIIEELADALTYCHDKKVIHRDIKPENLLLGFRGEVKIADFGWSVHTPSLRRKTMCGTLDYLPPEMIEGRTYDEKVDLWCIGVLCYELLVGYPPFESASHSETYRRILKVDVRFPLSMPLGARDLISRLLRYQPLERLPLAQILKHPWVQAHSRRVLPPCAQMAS

[34] = molecular target: ERBB2 (human) (UniProt P04626)
[35] = molecular target: LIMK2 (human) (UniProt P53671)
[36] = molecular target: FLT4 (human) (UniProt P35916)
[37] = molecular target: STK35 (human) (UniProt Q8TDR2)
[38] = molecular target: TNIK (human) (UniProt Q9UKE5)
[39] = molecular target: RIOK1 (human) (UniProt Q9BRS2)
Sequence of RIOK1 (human) (Q9BRS2 whole entry, looked up): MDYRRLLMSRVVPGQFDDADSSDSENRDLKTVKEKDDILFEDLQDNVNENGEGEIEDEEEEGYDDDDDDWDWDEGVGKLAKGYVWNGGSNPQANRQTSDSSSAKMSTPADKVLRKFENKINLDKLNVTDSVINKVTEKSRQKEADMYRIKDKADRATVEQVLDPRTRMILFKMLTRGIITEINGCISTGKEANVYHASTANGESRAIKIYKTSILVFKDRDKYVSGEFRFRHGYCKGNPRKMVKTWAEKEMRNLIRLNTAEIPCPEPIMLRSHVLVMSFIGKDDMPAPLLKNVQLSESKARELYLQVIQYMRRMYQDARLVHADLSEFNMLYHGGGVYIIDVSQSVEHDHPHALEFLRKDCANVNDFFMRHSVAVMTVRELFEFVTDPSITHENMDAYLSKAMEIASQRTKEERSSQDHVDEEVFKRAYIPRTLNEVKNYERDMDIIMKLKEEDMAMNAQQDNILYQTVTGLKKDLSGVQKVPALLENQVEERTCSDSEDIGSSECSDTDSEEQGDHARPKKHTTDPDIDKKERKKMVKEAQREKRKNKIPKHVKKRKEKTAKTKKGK

[40] = molecular target: CSNK1G2 (human) (UniProt P78368)

Sequence of MYLK (human) (Q15746 whole entry, looked up): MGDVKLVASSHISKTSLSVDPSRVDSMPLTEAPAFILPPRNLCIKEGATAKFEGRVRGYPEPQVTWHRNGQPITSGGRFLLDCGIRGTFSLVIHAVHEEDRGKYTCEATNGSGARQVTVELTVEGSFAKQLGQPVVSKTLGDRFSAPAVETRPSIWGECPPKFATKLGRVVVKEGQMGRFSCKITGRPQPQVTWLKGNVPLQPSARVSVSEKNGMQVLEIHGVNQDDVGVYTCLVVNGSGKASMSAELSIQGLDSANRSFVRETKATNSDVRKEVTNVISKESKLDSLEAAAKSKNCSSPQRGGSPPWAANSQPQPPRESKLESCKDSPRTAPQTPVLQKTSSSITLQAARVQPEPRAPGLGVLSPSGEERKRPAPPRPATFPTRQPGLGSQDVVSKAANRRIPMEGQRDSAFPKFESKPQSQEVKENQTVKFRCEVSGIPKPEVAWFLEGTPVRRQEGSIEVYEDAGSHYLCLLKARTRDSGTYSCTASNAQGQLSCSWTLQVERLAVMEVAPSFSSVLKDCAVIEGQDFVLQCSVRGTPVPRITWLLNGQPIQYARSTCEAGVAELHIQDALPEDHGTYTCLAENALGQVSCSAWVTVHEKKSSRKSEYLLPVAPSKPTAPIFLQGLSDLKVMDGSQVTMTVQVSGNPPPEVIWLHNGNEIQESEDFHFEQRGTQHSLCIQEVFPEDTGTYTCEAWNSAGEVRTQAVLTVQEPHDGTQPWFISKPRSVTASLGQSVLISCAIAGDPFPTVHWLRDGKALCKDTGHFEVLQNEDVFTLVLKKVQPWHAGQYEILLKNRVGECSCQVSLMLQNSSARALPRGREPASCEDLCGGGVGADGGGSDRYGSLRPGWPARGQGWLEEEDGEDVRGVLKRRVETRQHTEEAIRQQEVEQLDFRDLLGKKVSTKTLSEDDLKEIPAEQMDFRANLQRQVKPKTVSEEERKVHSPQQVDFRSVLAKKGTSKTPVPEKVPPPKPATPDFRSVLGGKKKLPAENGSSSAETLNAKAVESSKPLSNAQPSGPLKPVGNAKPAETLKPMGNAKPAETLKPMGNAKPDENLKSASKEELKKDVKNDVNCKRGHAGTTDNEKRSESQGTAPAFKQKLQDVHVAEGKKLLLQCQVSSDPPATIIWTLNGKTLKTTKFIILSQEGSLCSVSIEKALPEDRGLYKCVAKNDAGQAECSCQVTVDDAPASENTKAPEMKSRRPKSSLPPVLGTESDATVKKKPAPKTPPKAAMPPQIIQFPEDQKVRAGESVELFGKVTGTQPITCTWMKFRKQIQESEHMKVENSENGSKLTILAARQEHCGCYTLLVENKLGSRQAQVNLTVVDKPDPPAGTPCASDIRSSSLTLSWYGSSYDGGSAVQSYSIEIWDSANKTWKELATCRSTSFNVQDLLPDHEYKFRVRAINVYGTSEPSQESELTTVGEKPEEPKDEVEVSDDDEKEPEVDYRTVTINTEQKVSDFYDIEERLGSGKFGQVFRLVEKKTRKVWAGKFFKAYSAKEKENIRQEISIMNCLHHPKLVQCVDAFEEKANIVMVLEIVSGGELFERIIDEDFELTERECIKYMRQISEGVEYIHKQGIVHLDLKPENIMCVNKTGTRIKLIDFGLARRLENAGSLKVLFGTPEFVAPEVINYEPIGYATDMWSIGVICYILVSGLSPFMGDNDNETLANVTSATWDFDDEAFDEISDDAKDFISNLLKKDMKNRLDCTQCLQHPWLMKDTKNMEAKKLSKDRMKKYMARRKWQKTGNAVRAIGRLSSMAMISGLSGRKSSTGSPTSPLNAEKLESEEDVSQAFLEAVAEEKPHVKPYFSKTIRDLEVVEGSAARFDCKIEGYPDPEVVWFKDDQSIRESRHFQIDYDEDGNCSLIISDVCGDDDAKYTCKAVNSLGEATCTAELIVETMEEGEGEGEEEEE

Nc1ccc(-c2ccc3ncc4ccc(=O)n(-c5cccc(C(F)(F)F)c5)c4c3c2)cn1
kinase still bound, per cent of control [1]: 73%
kinase still bound, per cent of control [2]: 12%
kinase still bound, per cent of control [3]: 100%
kinase still bound, per cent of control [4]: 95%
kinase still bound, per cent of control [5]: 62%
kinase still bound, per cent of control [6]: 100%
kinase still bound, per cent of control [7]: 100%
kinase still bound, per cent of control [8]: 71%
kinase still bound, per cent of control [9]: 43%
kinase still bound, per cent of control [10]: 86%
kinase still bound, per cent of control [11]: 100%
kinase still bound, per cent of control [12]: 99%
kinase still bound, per cent of control [13]: 88%
kinase still bound, per cent of control [14]: 93%
kinase still bound, per cent of control [15]: 46%
kinase still bound, per cent of control [16]: 98%
kinase still bound, per cent of control [17]: 100%
kinase still bound, per cent of control [18]: 100%
kinase still bound, per cent of control [19]: 100%
kinase still bound, per cent of control [20]: 95%
kinase still bound, per cent of control [21]: 100%
kinase still bound, per cent of control [22]: 63%
kinase still bound, per cent of control [23]: 73%
kinase still bound, per cent of control [24]: 100%
kinase still bound, per cent of control [25]: 48%
kinase still bound, per cent of control [26]: 50%
kinase still bound, per cent of control [27]: 85%
kinase still bound, per cent of control [28]: 79%
kinase still bound, per cent of control [29]: 100%
kinase still bound, per cent of control [30]: 100%
kinase still bound, per cent of control [31]: 87%
kinase still bound, per cent of control [32]: 83%
kinase still bound, per cent of control [33]: 100%
kinase still bound, per cent of control [34]: 97%
kinase still bound, per cent of control [35]: 89%
kinase still bound, per cent of control [36]: 85%
kinase still bound, per cent of control [37]: 92%
kinase still bound, per cent of control [38]: 68%
kinase still bound, per cent of control [39]: 65%
kinase still bound, per cent of control [40]: 100%

CCC(=O)N1CCN(c2ccc(-n3c(=O)ccc4cnc5ccc(-c6cnc7ccccc7c6)cc5c43)cc2C(F)(F)F)CC1
kinase still bound, per cent of control [1]: 23%
kinase still bound, per cent of control [2]: 49%
kinase still bound, per cent of control [3]: 1.9%
kinase still bound, per cent of control [4]: 87%
kinase still bound, per cent of control [5]: 1.8%
kinase still bound, per cent of control [6]: 100%
kinase still bound, per cent of control [7]: 78%
kinase still bound, per cent of control [8]: 5.2%
kinase still bound, per cent of control [9]: 44%
kinase still bound, per cent of control [10]: 25%
kinase still bound, per cent of control [11]: 100%
kinase still bound, per cent of control [12]: 92%
kinase still bound, per cent of control [13]: 78%
kinase still bound, per cent of control [14]: 94%
kinase still bound, per cent of control [15]: 100%
kinase still bound, per cent of control [16]: 100%
kinase still bound, per cent of control [17]: 91%
kinase still bound, per cent of control [18]: 77%
kinase still bound, per cent of control [19]: 100%
kinase still bound, per cent of control [20]: 73%
kinase still bound, per cent of control [21]: 91%
kinase still bound, per cent of control [22]: 100%
kinase still bound, per cent of control [23]: 89%
kinase still bound, per cent of control [24]: 100%
kinase still bound, per cent of control [25]: 11%
kinase still bound, per cent of control [26]: 50%
kinase still bound, per cent of control [27]: 72%
kinase still bound, per cent of control [28]: 94%
kinase still bound, per cent of control [29]: 100%
kinase still bound, per cent of control [30]: 4.6%
kinase still bound, per cent of control [31]: 99%
kinase still bound, per cent of control [32]: 93%
kinase still bound, per cent of control [33]: 91%
kinase still bound, per cent of control [34]: 91%
kinase still bound, per cent of control [35]: 4.8%
kinase still bound, per cent of control [36]: 74%
kinase still bound, per cent of control [37]: 18%
kinase still bound, per cent of control [38]: 39%
kinase still bound, per cent of control [39]: 81%
kinase still bound, per cent of control [40]: 100%
